Assay results as given in ChEMBL document CHEMBL4321854, “Discovery of a First-in-Class Mitogen-Activated Protein Kinase Kinase 1/2 Degrader” (J Med Chem, 2019).
Activity calls are given as the source filed them. No cut-off for these calls is given here.

Experiments:
[1] = target: T1, von Hippel-Lindau disease tumor suppressor/Dual specificity mitogen-activated protein kinase kinase 2/Dual specificity mitogen-activated protein kinase kinase 1 (Homo sapiens) (UniProt P36507+Q02750+P40337); assay: (§1) Protac activity against VHL/MEK1/2 in human HT-29 cells harboring with BRAF V600E variant assessed as phosphorylation of MEK at S218/222 residues at 0.3 uM pretreated with NEDD8-activating enzyme inhibitor, MLN4924 for 2 hrs followed by incubation with compound for 10 hrs by Western blot analysis; type: cell-based
T1 sequence (P36507 whole entry, looked up): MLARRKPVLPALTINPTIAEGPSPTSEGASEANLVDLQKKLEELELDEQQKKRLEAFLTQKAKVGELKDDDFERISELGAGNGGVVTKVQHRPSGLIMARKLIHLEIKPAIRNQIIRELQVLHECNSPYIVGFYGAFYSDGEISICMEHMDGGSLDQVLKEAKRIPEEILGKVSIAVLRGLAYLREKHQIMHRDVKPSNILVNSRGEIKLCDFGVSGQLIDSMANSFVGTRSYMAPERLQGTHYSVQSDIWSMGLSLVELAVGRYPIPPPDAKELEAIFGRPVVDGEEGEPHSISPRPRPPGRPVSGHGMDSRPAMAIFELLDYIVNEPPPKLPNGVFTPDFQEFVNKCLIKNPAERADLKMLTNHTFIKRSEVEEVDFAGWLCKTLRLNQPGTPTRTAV
T1 sequence (P40337 whole entry, looked up): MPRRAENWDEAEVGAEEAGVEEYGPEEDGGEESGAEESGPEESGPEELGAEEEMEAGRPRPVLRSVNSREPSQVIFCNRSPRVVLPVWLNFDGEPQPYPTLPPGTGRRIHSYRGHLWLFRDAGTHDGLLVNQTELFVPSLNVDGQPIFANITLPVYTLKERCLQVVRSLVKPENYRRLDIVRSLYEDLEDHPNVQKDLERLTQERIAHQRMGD
T1 sequence (Q02750 whole entry, looked up): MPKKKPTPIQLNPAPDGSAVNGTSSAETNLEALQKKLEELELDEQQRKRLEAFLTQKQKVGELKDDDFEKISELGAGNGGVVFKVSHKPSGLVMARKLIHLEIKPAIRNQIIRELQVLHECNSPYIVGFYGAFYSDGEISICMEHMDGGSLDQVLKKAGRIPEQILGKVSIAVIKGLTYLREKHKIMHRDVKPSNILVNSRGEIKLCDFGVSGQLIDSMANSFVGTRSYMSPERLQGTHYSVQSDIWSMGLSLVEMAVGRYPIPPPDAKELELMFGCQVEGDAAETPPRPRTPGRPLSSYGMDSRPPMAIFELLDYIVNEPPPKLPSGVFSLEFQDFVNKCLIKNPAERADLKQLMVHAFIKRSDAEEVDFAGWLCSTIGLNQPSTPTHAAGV

[2] = target: von Hippel-Lindau disease tumor suppressor/Dual specificity mitogen-activated protein kinase kinase 1 (Homo sapiens, UniProt Q02750+P40337, V600E); assay: (§2) Protac activity against VHL/MEK1 in human UACC257 cells harboring BRAF V600E variant assessed as degradation of MEK1 after 24 hrs by Western blot analysis; type: cell-based
[3] = target: T2, von Hippel-Lindau disease tumor suppressor/Dual specificity mitogen-activated protein kinase kinase 1 (Homo sapiens) (UniProt Q02750+P40337); assay: as §2; type: cell-based
T2 sequence (P40337 whole entry, looked up): as the sequence (P40337 whole entry, looked up) above
T2 sequence (Q02750 whole entry, looked up): as the sequence (Q02750 whole entry, looked up) above

[4] = target: T3, von Hippel-Lindau disease tumor suppressor/Dual specificity mitogen-activated protein kinase kinase 2 (Homo sapiens) (UniProt P36507+P40337); assay: Protac activity against VHL/MEK2 in human UACC257 cells harboring with BRAF V600E variant assessed as degradation of MEK2 at 3 to 5 uM after 24 hrs by Western blot analysis; type: cell-based
T3 sequence (P36507 whole entry, looked up): as the sequence (P36507 whole entry, looked up) above
T3 sequence (P40337 whole entry, looked up): as the sequence (P40337 whole entry, looked up) above

[5] = target: T3, von Hippel-Lindau disease tumor suppressor/Dual specificity mitogen-activated protein kinase kinase 2 (Homo sapiens); assay: (§3) Protac activity against VHL/MEK2 in human SK-MEL-28 cells harboring with BRAF V600E variant assessed as degradation of MEK2 by measuring MEK2 protein level at 0.3 uM pretreated with MEK1/2 inhibitor, PD0325901 for 2 hrs followed by incubation with compound for 10 hrs by Western blot analysis; type: cell-based
[6] = target: T1, von Hippel-Lindau disease tumor suppressor/Dual specificity mitogen-activated protein kinase kinase 2/Dual specificity mitogen-activated protein kinase kinase 1 (Homo sapiens); assay: Protac activity against VHL/MEK1/2 in human SK-MEL-28 cells harboring with BRAF V600E variant assessed as in phosphorylation of MEK at S218/222 residues at 0.3 uM pretreated with VHL ligand, VH 032 for 2 hrs followed by incubation with compound for 10 hrs by Western blot analysis; type: cell-based
[7] = target: T3, von Hippel-Lindau disease tumor suppressor/Dual specificity mitogen-activated protein kinase kinase 2 (Homo sapiens); assay: Protac activity against VHL/MEK2 in human HT-29 cells harboring with BRAF V600E variant assessed as degradation of MEK2 at 3 to 5 uM after 24 hrs by Western blot analysis; type: cell-based
[8] = target: T2, von Hippel-Lindau disease tumor suppressor/Dual specificity mitogen-activated protein kinase kinase 1 (Homo sapiens); assay: Protac activity against VHL/MEK1 in human SK-MEL-28 cells harboring with BRAF V600E variant assessed as degradation of MEK1 by measuring reduction in MEK1 protein level at 0.1 to 0.3 uM after 2 hrs by Western blot analysis; type: cell-based
[9] = target: T1, von Hippel-Lindau disease tumor suppressor/Dual specificity mitogen-activated protein kinase kinase 2/Dual specificity mitogen-activated protein kinase kinase 1 (Homo sapiens); assay: as §1, with “human SK-MEL-28” for “human HT-29”, “of ERK” for “of MEK”, “at T202/Y204” for “at S218/222”; type: cell-based
[10] = target: Dual specificity mitogen-activated protein kinase kinase 1 (Homo sapiens, UniProt Q02750); assay: Inhibition of recombinant full length human His-tagged MEK1 expressed in baculovirus expression system using ERK K52R dead variant as substrate preincubated for 20 mins followed by incubation with 33P-ATP addition for 2 hrs by hotspot kinase assay
Sequence of Dual specificity mitogen-activated protein kinase kinase 1 (Q02750 whole entry): as the sequence (Q02750 whole entry, looked up) above

[11] = target: T1, von Hippel-Lindau disease tumor suppressor/Dual specificity mitogen-activated protein kinase kinase 2/Dual specificity mitogen-activated protein kinase kinase 1 (Homo sapiens); assay: Protac activity against VHL/MEK1/2 in human SK-MEL-28 cells harboring with BRAF V600E variant assessed as phosphorylation of ERK at T202/Y204 residues at 0.3 uM pretreated with MEK1/2 inhibitor, PD0325901 for 2 hrs followed by incubation with compound for 10 hrs by Western blot analysis; type: cell-based
[12] = target: T2, von Hippel-Lindau disease tumor suppressor/Dual specificity mitogen-activated protein kinase kinase 1 (Homo sapiens); assay: as §3, with “VHL/MEK1” for “VHL/MEK2”, “MEK1” for “MEK2”, “NEDD8-activating enzyme” for “MEK1/2”, “MLN4924” for “PD0325901”; type: cell-based
[13] = target: von Hippel-Lindau disease tumor suppressor/Cullin-9 (Homo sapiens) (UniProt P40337+Q8IWT3); assay: Protac activity against VHL/cullin9 in human HT-29 cells harboring with BRAF V600E variant assessed as reduction in Cullin9 protein level at 0.1 uM after 10 hrs by LC-MS based Volcano plot analysis; type: cell-based
Sequence of von Hippel-Lindau disease tumor suppressor/Cullin-9 (Homo sapiens) (P40337 whole entry, looked up): as the sequence (P40337 whole entry, looked up) above
Sequence of von Hippel-Lindau disease tumor suppressor/Cullin-9 (Homo sapiens) (Q8IWT3 whole entry, looked up): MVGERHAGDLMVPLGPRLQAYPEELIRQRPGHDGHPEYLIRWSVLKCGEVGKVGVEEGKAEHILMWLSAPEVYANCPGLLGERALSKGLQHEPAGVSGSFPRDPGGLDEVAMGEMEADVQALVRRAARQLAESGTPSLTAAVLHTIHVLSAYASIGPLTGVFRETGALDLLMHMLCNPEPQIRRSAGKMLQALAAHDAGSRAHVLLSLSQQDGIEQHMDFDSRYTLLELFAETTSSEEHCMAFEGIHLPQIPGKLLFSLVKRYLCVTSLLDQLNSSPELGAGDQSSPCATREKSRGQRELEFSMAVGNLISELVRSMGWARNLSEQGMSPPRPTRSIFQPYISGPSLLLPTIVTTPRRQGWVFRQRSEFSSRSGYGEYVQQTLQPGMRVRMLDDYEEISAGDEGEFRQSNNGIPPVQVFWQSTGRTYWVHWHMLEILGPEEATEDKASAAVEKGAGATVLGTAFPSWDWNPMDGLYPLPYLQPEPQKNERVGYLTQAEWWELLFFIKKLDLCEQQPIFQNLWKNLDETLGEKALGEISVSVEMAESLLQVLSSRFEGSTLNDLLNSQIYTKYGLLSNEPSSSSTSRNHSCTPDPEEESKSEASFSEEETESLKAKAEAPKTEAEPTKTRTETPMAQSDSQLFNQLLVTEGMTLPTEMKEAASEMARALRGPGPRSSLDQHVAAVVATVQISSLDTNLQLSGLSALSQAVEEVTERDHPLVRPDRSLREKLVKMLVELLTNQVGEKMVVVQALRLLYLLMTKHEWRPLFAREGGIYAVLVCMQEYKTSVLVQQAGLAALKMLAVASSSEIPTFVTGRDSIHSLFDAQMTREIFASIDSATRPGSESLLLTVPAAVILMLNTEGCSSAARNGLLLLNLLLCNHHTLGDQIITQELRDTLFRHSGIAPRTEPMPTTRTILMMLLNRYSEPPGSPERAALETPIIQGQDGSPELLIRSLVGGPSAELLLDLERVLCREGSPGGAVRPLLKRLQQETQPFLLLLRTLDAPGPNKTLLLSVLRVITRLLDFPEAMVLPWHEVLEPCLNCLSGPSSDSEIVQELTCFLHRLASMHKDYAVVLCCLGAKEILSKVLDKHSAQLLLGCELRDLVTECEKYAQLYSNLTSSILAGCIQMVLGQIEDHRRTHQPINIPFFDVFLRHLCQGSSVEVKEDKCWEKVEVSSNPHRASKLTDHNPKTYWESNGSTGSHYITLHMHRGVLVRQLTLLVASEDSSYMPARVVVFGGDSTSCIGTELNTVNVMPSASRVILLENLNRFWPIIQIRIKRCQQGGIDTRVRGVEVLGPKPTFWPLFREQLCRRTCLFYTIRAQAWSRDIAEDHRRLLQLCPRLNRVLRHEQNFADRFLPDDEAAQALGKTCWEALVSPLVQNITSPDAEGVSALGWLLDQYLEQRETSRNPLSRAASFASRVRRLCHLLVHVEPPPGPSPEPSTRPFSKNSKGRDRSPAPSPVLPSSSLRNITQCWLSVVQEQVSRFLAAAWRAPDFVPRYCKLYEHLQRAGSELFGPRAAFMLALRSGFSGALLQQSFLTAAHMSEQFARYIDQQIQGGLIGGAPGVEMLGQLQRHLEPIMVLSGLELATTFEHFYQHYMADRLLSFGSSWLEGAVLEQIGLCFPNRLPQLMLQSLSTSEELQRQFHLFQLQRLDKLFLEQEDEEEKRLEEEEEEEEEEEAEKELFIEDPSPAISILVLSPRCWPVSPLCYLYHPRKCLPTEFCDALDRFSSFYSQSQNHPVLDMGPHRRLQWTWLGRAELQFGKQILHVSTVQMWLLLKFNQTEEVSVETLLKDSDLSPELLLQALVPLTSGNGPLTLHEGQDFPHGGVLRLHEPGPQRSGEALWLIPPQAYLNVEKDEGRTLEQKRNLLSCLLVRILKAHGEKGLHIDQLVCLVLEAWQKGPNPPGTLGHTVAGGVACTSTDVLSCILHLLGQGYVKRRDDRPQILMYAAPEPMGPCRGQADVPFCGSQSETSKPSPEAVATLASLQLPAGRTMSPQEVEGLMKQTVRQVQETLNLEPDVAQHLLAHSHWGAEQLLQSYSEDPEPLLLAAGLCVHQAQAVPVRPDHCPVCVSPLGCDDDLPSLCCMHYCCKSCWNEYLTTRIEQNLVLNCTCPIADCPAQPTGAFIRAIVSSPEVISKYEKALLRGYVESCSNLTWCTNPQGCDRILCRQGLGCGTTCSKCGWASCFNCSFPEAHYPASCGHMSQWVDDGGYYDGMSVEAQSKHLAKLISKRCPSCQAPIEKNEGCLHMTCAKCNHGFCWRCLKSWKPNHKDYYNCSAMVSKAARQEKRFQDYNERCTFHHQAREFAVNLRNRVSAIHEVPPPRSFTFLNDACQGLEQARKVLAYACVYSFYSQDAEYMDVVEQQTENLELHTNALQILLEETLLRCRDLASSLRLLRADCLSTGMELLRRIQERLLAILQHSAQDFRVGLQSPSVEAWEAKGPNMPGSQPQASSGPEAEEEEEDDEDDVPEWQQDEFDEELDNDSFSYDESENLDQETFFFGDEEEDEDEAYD

[14] = target: T1, von Hippel-Lindau disease tumor suppressor/Dual specificity mitogen-activated protein kinase kinase 2/Dual specificity mitogen-activated protein kinase kinase 1 (Homo sapiens); assay: Protac activity against VHL/MEK1/2 in human HT-29 cells harboring with BRAF V600E variant assessed as reduction in phosphorylation of MEK at S218/222 residues at 0.1 to 0.3 after >= 2 hrs by Western blot analysis; type: cell-based
[15] = target: T2, von Hippel-Lindau disease tumor suppressor/Dual specificity mitogen-activated protein kinase kinase 1 (Homo sapiens); assay: Protac activity against VHL/MEK1 in human HT-29 cells harboring with BRAF V600E variant assessed as degradation of MEK1 by measuring MEK1 protein level at 0.3 uM pretreated with VHL ligand, VH 032 for 2 hrs followed by incubation with compound for 10 hrs by Western blot analysis; type: cell-based
[16] = target: T3, von Hippel-Lindau disease tumor suppressor/Dual specificity mitogen-activated protein kinase kinase 2 (Homo sapiens); assay: Protac activity against VHL/MEK2 in human HT-29 cells harboring BRAF V600E variant assessed as degradation of MEK2 by measuring reduction in MEK2 protein level at 0.5 uM after 24 hrs by Western blot analysis relative to control; type: cell-based; parameters: scale not given: the % may be the effect or the level left
[17] = target: T3, von Hippel-Lindau disease tumor suppressor/Dual specificity mitogen-activated protein kinase kinase 2 (Homo sapiens); assay: Protac activity against VHL/MEK2 in human SK-MEL-28 cells harboring with BRAF V600E variant assessed as degradation of MEK2 by measuring reduction in MEK2 protein level at 0.1 to 0.3 uM after 2 hrs by Western blot analysis; type: cell-based
[18] = target: T1, von Hippel-Lindau disease tumor suppressor/Dual specificity mitogen-activated protein kinase kinase 2/Dual specificity mitogen-activated protein kinase kinase 1 (Homo sapiens); assay: Protac activity against VHL/MEK1/2 in human HT-29 cells harboring with BRAF V600E variant assessed as phosphorylation of ERK at T202/Y204 residues at 0.3 uM pretreated with VHL ligand, VH 032 for 2 hrs followed by incubation with compound for 10 hrs by Western blot analysis; type: cell-based
[19] = target: T2, von Hippel-Lindau disease tumor suppressor/Dual specificity mitogen-activated protein kinase kinase 1 (Homo sapiens); assay: Protac activity against VHL/MEK1 in human COLO205 cells harboring with BRAF V600E variant assessed as degradation of MEK1 at 3 to 5 uM after 24 hrs by Western blot analysis; type: cell-based
[20] = Toxicity in Swiss albino mouse assessed as effect on adverse events at 50 mg/kg, ip; type: organism-based; conditions: in vivo
[21] = target: T1, von Hippel-Lindau disease tumor suppressor/Dual specificity mitogen-activated protein kinase kinase 2/Dual specificity mitogen-activated protein kinase kinase 1 (Homo sapiens); assay: Protac activity against VHL/MEK1/2 in human HT-29 cells harboring with BRAF V600E variant assessed as phosphorylation of MEK at S218/222 residues at 0.3 uM pretreated with MEK1/2 inhibitor, PD0325901 for 2 hrs followed by incubation with compound for 2 hrs by Western blot analysis; type: cell-based
[22] = target: T3, von Hippel-Lindau disease tumor suppressor/Dual specificity mitogen-activated protein kinase kinase 2 (Homo sapiens); assay: Protac activity against VHL/MEK2 in human HT-29 cells harboring with BRAF V600E variant assessed as degradation of MEK2 by measuring reduction in MEK2 protein level at 0.1 uM after 10 hrs by LC-MS based Volcano plot analysis; type: cell-based
[23] = Toxicity in Swiss albino mouse assessed as effect on clinical signs at 50 mg/kg, ip; type: organism-based; conditions: in vivo
[24] = target: T1, von Hippel-Lindau disease tumor suppressor/Dual specificity mitogen-activated protein kinase kinase 2/Dual specificity mitogen-activated protein kinase kinase 1 (Homo sapiens); assay: Protac activity against VHL/MEK1/2 in human SK-MEL-28 cells harboring with BRAF V600E variant assessed as phosphorylation of ERK at T202/Y204 residues at 0.3 uM pretreated with proteasome inhibitor, MG-132 for 2 hrs followed by incubation with compound for 10 hrs by Western blot analysis; type: cell-based
[25] = target: T2, von Hippel-Lindau disease tumor suppressor/Dual specificity mitogen-activated protein kinase kinase 1 (Homo sapiens); assay: Protac activity against VHL/MEK1 in human HT-29 cells harboring with BRAF V600E variant assessed as degradation of MEK1 by measuring reduction in MEK1 protein level at 0.3 uM after 4 hrs by Western blot analysis relative to control; type: cell-based; parameters: scale not given: the % may be the effect or the level left

In the case of `Cc1ncsc1-c1ccc([C@H](C)NC(=O)[C@@H]2C[C@@H](O)CN2C(=O)[C@@H](NC(=O)CCCCCCCCCCNCCCONC(=O)c2ccc(F)c(F)c2Nc2ccc(I)cc2F)C(C)(C)C)cc1`, the Activity [1] is reported as “inactive”, the DC50 [2] is reported as 56 nM and the Activity [3] is reported as “Dose-dependent effect”. For the same compound, the Activity [4] was “Active”, the Activity [5] was “inactive” and the Activity [6] was “inactive”. For the same compound, the Activity [7] was “Active”, the Activity [8] was “Active” and the Activity [9] was “inactive”. The IC50 [10] was 1500 nM, the Activity [11] was “inactive” and the Activity [12] was “inactive”. The Activity [13] was “Active”, the Activity [14] was “Active” and the Activity [15] was “inactive”. For the same compound, the Activity [16] was greater than 80%, the Activity [17] was “Active” and the Activity [18] was “inactive”. For the same compound, the Activity [19] was “Active”, the Activity [20] was “Non-Toxic” and the Activity [21] was “inactive”. The Activity [22] was “Active”, the Activity [23] was “Non-Toxic” and the Activity [24] was “inactive”. It also gave an Activity [25] greater than 50%.
